Reference: patent US20240425496A1, “AZETIDINYL PYRIMIDINES AND USES THEREOF” (Aerie Pharmaceuticals, Inc., priority 2021, published 2024)

Assays:
[1] = target: JAK1 (Homo sapiens (Human), UniProt P23458); assay: JAK kinase assay (KINASE-GLO luminescent), JAK1 enzyme; assay type: biochemical; settings: JAK1 enzyme 10 nM, Abl peptide substrate
Method: (§1) All compounds were initially prepared as 10 mM stocks in anhydrous dimethylsulfoxide (DMSO). […] Test compounds were then serially diluted 1:5 in DMSO for an 11-point concentration response and further diluted in the assay buffer bringing all compound concentrations to a final range of 100 μM to 10 μM in 2.5% DMSO. […] The reaction was initiated by the addition of 10 μL of 4× stock solution ATP (2 μM). Reactions were thoroughly mixed manually, covered, and allowed to incubate at room temperature for 75 min. Protein kinase activity was quantitated using Promega's KINASE-GLO™ luminescent Kinase Assay Kit according to the manufacturer's directions. ATP concentrations remaining in Test wells following the termination of the enzymatic reaction were compared against control wells containing equivalent amounts of DMSO containing no inhibitor (CTRL). […] Percent of Control (POC) values were determined for each concentration of compound tested according to the equation: […]
(§2) IC50 values were calculated using the following 4-parameter logistic curve-fitting algorithm:
(§3) Compounds were prepared in the exact same manner as described in the ROCK Kinase Assay with the exception to the substrate and enzyme. […] All other steps and solutions remain identical to the ROCK Kinase Assay above.

[2] = target: TYK2 (Homo sapiens (Human), UniProt P29597); assay: JAK kinase assay (KINASE-GLO luminescent), TYK2 enzyme; assay type: biochemical; settings: TYK2 enzyme 10 nM, Abl peptide substrate
Method: as §1, §2, §3

TYK2, sequence (P29597 whole entry, species assumed): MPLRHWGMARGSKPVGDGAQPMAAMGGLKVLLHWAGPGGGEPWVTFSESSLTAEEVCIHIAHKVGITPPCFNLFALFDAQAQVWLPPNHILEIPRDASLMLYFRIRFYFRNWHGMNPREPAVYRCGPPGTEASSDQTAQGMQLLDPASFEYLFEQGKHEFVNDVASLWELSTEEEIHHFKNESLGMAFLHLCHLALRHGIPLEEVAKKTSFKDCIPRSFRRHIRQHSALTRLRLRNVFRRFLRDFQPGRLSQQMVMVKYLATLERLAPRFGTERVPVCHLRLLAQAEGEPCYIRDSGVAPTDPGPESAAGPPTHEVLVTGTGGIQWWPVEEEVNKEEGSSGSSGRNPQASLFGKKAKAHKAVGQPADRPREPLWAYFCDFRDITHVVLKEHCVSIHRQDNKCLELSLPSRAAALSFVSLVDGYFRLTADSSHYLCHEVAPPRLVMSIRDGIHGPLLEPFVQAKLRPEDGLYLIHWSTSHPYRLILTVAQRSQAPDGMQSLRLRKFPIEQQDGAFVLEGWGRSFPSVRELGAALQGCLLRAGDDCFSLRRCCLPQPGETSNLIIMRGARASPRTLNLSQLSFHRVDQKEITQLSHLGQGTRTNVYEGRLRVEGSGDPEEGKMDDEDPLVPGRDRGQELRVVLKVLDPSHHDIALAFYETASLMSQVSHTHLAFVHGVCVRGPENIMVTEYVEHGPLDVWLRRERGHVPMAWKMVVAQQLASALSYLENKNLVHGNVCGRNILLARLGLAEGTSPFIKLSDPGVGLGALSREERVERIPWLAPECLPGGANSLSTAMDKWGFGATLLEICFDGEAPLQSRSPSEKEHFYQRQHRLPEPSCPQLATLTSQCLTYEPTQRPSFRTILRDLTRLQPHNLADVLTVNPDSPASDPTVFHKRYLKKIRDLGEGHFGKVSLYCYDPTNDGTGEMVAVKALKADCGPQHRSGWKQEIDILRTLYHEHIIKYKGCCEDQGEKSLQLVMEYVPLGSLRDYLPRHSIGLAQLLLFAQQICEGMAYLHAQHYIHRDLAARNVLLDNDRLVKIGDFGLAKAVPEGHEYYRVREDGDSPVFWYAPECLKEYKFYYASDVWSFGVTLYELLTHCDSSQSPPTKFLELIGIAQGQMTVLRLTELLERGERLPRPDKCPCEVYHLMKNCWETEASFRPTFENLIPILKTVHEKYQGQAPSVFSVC
JAK1, sequence (P23458 whole entry, species assumed): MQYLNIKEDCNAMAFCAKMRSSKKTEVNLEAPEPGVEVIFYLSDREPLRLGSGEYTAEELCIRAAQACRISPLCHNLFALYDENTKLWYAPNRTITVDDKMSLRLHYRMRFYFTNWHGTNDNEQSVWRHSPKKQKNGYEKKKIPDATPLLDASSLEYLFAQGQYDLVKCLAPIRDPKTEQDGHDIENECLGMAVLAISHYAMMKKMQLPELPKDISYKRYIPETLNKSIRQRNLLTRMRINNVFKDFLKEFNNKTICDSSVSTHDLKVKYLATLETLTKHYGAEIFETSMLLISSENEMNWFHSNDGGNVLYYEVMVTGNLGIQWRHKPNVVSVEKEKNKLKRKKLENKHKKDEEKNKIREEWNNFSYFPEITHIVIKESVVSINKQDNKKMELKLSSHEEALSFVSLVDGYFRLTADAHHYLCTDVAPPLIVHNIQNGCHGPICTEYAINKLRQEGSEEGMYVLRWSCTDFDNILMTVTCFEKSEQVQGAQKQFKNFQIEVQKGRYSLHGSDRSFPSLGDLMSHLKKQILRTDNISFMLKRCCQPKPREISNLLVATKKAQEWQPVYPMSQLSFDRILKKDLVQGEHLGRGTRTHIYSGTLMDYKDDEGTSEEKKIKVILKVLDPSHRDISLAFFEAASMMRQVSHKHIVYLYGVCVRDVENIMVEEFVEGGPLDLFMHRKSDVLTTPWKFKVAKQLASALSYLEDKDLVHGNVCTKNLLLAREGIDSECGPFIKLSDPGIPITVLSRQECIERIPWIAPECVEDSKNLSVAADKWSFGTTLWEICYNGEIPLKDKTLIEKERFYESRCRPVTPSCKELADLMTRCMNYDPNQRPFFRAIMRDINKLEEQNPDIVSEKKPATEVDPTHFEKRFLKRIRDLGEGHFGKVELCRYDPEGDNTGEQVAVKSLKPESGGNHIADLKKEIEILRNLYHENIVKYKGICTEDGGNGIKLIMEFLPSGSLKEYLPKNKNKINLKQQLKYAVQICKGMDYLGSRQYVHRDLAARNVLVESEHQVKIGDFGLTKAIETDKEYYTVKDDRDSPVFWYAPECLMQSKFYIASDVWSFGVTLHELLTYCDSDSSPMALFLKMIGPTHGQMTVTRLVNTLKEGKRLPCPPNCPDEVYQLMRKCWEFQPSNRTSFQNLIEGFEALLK

Compound | IC50 [1] | IC50 [2]
Cc1cc(Nc2ncc(C)c(N3CC(N)(CC#N)C3)n2)sn1 [E289, 2-(3-amino-1-(5-methyl-2-((3-methylisothiazol-5-yl)amino)pyrimidin-4-yl)azetidin-3-yl)acetonitrile] | < 150 nM | < 100 nM
CCS(=O)(=O)NC1(CC#N)CN(c2nc(N(c3cc(C)ns3)S(=O)(=O)CC)ncc2C)C1 [E302] | < 5000 nM | < 1000 nM
Cc1cc(Nc2ncc(C)c(N3CC(CC#N)(N4CCC(C5CC5(F)F)CC4)C3)n2)sn1 (stereo not drawn) [E40] | < 10 nM | < 10 nM
Cc1cnc(Nc2cnn(C)c2)nc1N1CC(CC(F)F)(C2CC2)C1 [E165a] | < 10 nM | < 10 nM
Cc1cnc(Nc2ccc3c(c2)B(O)OC3)nc1N1CC(CC#N)(N2CCN3C[C@H](F)C[C@H]3C2)C1 [E216-O] | < 120 nM | < 30 nM
Cc1cc(Nc2ncc(C)c(N3CC(CC#N)(N4CCC5(CC4)CC5)C3)n2)sn1 [E39] | < 10 nM | < 10 nM
Cc1cc(Nc2ncc(C)c(N3CC(CC#N)(N4CC5CC(C5)C4)C3)n2)sn1 [E19] | < 10 nM | < 10 nM
Cc1cnc(Nc2cnn(C)c2)nc1N1CC(CC#N)(N2CCN3C[C@H](C)C[C@H]3C2)C1 [E175a] | < 50 nM | < 50 nM
Cc1cc(Nc2ncc(C)c(N3CC(CC#N)(NS(C)(=O)=O)C3)n2)sn1 [E291, N-(3-(cyanomethyl)-1-(5-methyl-2-((3-methylisothiazol-5-yl)amino)pyrimidin-4-yl)azetidin-3-yl)methanesulfonamide] | < 20 nM | < 10 nM
Cc1cnc(Nc2cnn(C)c2)nc1N1CC(CC#N)(NCc2cccc(Cl)c2)C1 [E351] | < 20 nM | < 50 nM
Cc1cc(Nc2ncc(C)c(N3CC(CCCl)(N4CCCCC4)C3)n2)sn1 [E113a] | < 10 nM | < 10 nM
Cc1cc(Nc2ncc(C)c(N3CC(CC#N)(N4CC(N(C)C)C4)C3)n2)sn1 [E43] | < 150 nM | < 100 nM
Cc1cnc(Nc2ccc(N3CCN(C)CC3)c(C(F)(F)F)c2)nc1N1CC2(C1)CC2(F)F [E115] | < 250 nM | < 100 nM
Cc1cc(Nc2ncc(C)c(N3CC(CCC#N)C3)n2)sn1 [E117-T] | < 25 nM | < 10 nM
Cc1cc(Nc2ncc(C)c(N3CC4(C3)CC4(F)F)n2)sn1 [E117-P] | < 10 nM | < 5 nM
Cc1cc(Nc2ncc(C)c(N3CC(CC#N)(N4CCN(C)C(C)C4)C3)n2)sn1 (stereo not drawn) [E36] | < 10 nM | < 10 nM
CCS(=O)(=O)C1CN(C2(CC#N)CN(c3nc(Nc4cc(C)ns4)ncc3C)C2)C1 [E96a] | < 100 nM | < 50 nM
Cc1cc(Nc2ncc(C)c(N3CC(CC#N)(N4CCN(C(C)C)CC4)C3)n2)sn1 [E55] | < 50 nM | < 50 nM
Cc1cc(Nc2ncc(C)c(N3CC(CC#N)(N4CCN5CCOC[C@@H]5C4)C3)n2)sn1 [E77a] | < 50 nM | < 10 nM
Cc1cnc(Nc2cnn(C)c2)nc1C1CC(C)(NC(=O)[C@@H]2CC2(F)F)C1 (stereo partly drawn) [E279] | < 5 nM | < 10 nM

Compound | IC50 [1] | IC50 [2]
Cc1cc(Nc2ncc(C)c(N3CC(CC#N)(N4C[C@H]5CN(C)C[C@H]5C4)C3)n2)sn1 [E104a] | < 100 nM | < 100 nM
Cc1cc(Nc2ncc(C)c(N3CC(CC#N)(N4CCN5CCOC[C@H]5C4)C3)n2)sn1 [E78a] | < 10 nM | < 10 nM
Cc1cc(Nc2ncc(C)c(N3CC(CC#N)(NC(=O)c4cccc(C(F)(F)F)c4)C3)n2)sn1 [E315] | < 10 nM | < 20 nM
CCC1(NC(=O)c2cccc(F)c2)CN(c2nc(Nc3cnn(C)c3)ncc2C)C1 [E318C] | < 10 nM | < 50 nM
Cc1cc(Nc2ncc(C)c(N3CC(CC#N)(NC4CN(C)C4)C3)n2)sn1 [E52H] | < 100 nM | < 100 nM
Cc1cc(Nc2ncc(C)c(N3CC(CC#N)(N4CCN5CCC[C@@H]5C4)C3)n2)sn1 [E61a] | < 50 nM | < 50 nM
Cc1cnc(Nc2ccc3c(c2)CN(C)C3)nc1N1CC(CC#N)(N2CCC3(CC2)CC3)C1 [E114] | < 20 nM | < 20 nM
Cc1cc(Nc2ncc(C)c(N3CC(CC#N)(N4C[C@H](C)N(C)[C@@H](C)C4)C3)n2)sn1 [E44] | < 50 nM | < 20 nM
Cc1cc(Nc2ncc(C)c(N3CC(CC#N)(N4CC(C)CC5(CC5)C4)C3)n2)sn1 (stereo not drawn) [E23] | < 10 nM | < 10 nM
Cc1cc(Nc2ncc(Cl)c(N3CC(CC#N)(N4CCCCC4)C3)n2)sn1 [E25] | < 10 nM | < 10 nM
Cc1cc(Nc2ncc(C)c(N3CC(CC#N)(NC(=O)c4cccc(F)c4)C3)n2)sn1 [E304] | < 10 nM | < 10 nM
Cc1cc(Nc2ncc(C)c(N3CC(CC#N)(N4CC5CCC(C4)N5C)C3)n2)sn1 [E30] | < 50 nM | < 10 nM
Cc1cc(Nc2ncc(C)c(N3CC(CC#N)(N4CCC5C(CC4)C5(F)F)C3)n2)sn1 (stereo not drawn) [E52E] | < 10 nM | < 10 nM
COc1cnc(Nc2cc(C)ns2)nc1N1CC(CC#N)(N2CCN3C[C@H](F)C[C@H]3C2)C1 [E101a] | < 10 nM | < 10 nM
Cc1cc(Nc2ncc(C)c(N3CC(CC#N)(N4CCN(CCCF)CC4)C3)n2)sn1 [E117-J] | < 5 nM | < 5 nM
Cc1cc(Nc2ncc(C)c(N3CC(C)(NC(=O)c4cccc(F)c4)C3)n2)sn1 [E309] | < 10 nM | < 20 nM
Cc1cnc(Nc2cnn(C)c2)nc1N1CC(CC#N)(N[C@H]2CC[C@H](NS(C)(=O)=O)C2)C1 [E306] | < 120 nM | < 60 nM
Cc1cnc(Nc2cnn(C)c2)nc1N1CC(CC#N)(N2CCC3(CC2)CC3(F)F)C1 [E81] | < 10 nM | < 10 nM
Cc1cnc(Nc2ccc3c(c2)CN(C)C3)nc1N1CC(CC#N)(N2CCC3(CC2)CC3(F)F)C1 [E113] | < 10 nM | < 10 nM
Cc1cc(Nc2ncc(C)c(N3CC(CC#N)(NC(=O)Cc4ccccc4F)C3)n2)sn1 [E300] | < 20 nM | < 20 nM

Compound | IC50 [1] | IC50 [2]
Cc1cc(Nc2ncc(C)c(N3CC(CC#N)(N4CCN(C5CC5)CC4)C3)n2)sn1 [E54] | < 10 nM | < 10 nM
Cc1cc(Nc2ncc(C)c(N3CC(CC#N)(N4CC5CC(C4)N5C)C3)n2)sn1 [E52F] | < 100 nM | < 50 nM
Cc1cc(Nc2ncc(C)c(N3CC(C)(CNC(=O)C4CN(C(=O)OC(C)(C)C)CC4(F)F)C3)n2)sn1 (stereo not drawn) [E283] | < 100 nM | < 100 nM
Cc1cnc(Nc2ccc3c(c2)CN(C)C3)nc1N1CC(CC#N)(N2CCCC3(C2)CC3(F)F)C1 (stereo not drawn) [E111, 2-(3-(1,1-difluoro-5-azaspiro[2.5]octan-5-yl)-1-(5-methyl-2-((2-methylisoindolin-5-yl)amino)pyrimidin-4-yl)azetidin-3-yl)acetonitrile] | < 10 nM | < 10 nM
[2H]C([2H])([2H])n1cc(Nc2ncc(C)c(N3CC(CC#N)(N4CCN5C[C@H](F)C[C@H]5C4)C3)n2)cn1 [E156a] | < 10 nM | < 10 nM
Cc1cnc(Nc2ccc3c(c2)CN(C)C3)nc1N1CC(CC#N)(N(C)C2CC2)C1 [E216-C] | < 10 nM | < 10 nM
Cc1cnc(Nc2cnn(C)c2)nc1N1CC(O)(CC2CC2)C1 [E175-B] | < 200 nM | < 200 nM
Cc1cnc(Nc2ccc(CN(C)C)cc2)nc1N1CC(C)(NC(=O)c2cccc(F)c2)C1 [E308] | < 100 nM | < 50 nM
Cc1cc(Nc2ncc(C)c(N3CC(CC#N)(NC(=O)[C@@H]4CC4(F)F)C3)n2)sn1 [E290, (S)—N-(3-(cyanomethyl)-1-(5-methyl-2-((3-methylisothiazol-5-yl)amino)pyrimidin-4-yl)azetidin-3-yl)-2,2-difluorocyclopropane-1-carboxamide] | < 10 nM | < 10 nM
Cc1cc(Nc2ncc(C)c(N3CC(CC(F)F)C3)n2)sn1 [E117-U] | < 25 nM | < 10 nM
Cc1cnc(Nc2cnn(C)c2)nc1N1CC(CC#N)(N[C@H]2CC[C@H](NC(=O)OC(C)(C)C)C2)C1 [E305] | > 1500 nM | > 2000 nM
Cc1cc(Nc2ncc(C)c(N3CC(CC#N)(N4CCCC5(CC5)C4)C3)n2)sn1 [E21] | < 10 nM | < 10 nM
Cc1cnc(Nc2ccc(S(C)(=O)=O)cc2)nc1N1CC(CC(F)F)(C2CC2)C1 [E216-B] | < 10 nM | < 10 nM
Cc1cnc(Nc2cccc(CN(C)C)c2)nc1N1CC(CC#N)(N2CCCC3(C2)CC3(F)F)C1 (stereo not drawn) [E116] | < 10 nM | < 10 nM
Cc1cc(Nc2ncc(C)c(N3CC(CC#N)(NC(=O)c4cccc(F)c4C)C3)n2)sn1 [E318] | < 50 nM | < 30 nM
Cc1cc(Nc2ncc(C)c(N3CC(C)(CNC(=O)C4CN(C)C4)C3)n2)sn1 [E280] | < 400 nM | < 400 nM
Cc1cc(Nc2ncc(C)c(N3CC(CC#N)(N4CCn5c(cnc5C)C4)C3)n2)sn1 [E91a] | < 10 nM | < 10 nM
Cc1cc(Nc2ncc(C)c(N3CC(CC#N)(N4CCCC5(C4)CC5(F)F)C3)n2)sn1 (stereo not drawn) [E27] | < 10 nM | < 10 nM
Cc1cc(Nc2ncc(F)c(N3CC(CC#N)(N4CCCCC4)C3)n2)sn1 [E74a] | < 500 nM | < 20 nM
Cc1cc(Nc2ncc(C)c(N3CC(CC#N)(N4CCN(C)C5CC54)C3)n2)sn1 (stereo not drawn) [E94a] | < 10 nM | < 10 nM
